Assay [1] can be described thus: Cytotoxicity against human Hep3B cells after 96 hrs by WST method. The assay is classed as functional, cell-based, Hep 3B2.
The subject of a further assay is HeLa. Briefly: Cytotoxicity against human HeLa cells after 96 hrs by WST method. Type of assay: functional, cell-based.
Another assay relates to K562. Briefly: Cytotoxicity against human K562 cells after 96 hrs by WST method. Type of assay: functional, cell-based. The conditions noted are these: K562, 96 h.
For the next assay, the system named is HL-60. Briefly: Cytotoxicity against human HL60 cells after 96 hrs by WST method. Type of assay: functional, cell-based. The conditions noted are these: HL-60, 96 h.
For another assay, the system named is Escherichia coli. Briefly: Antimicrobial activity against Escherichia coli at 50 ug/disk after 48 hrs by paper disk method. The assay is classed as functional, organism-based.
The subject of the next assay is Bacillus cereus. Briefly: Antimicrobial activity against Bacillus cereus at 50 ug/disk after 48 hrs by paper disk method. The assay is classed as functional, organism-based.
Another assay relates to Staphylococcus aureus. Briefly: Antimicrobial activity against Staphylococcus aureus at 50 ug/disk after 48 hrs by paper disk method. Type of assay: functional, organism-based.
For another assay, the system named is Salmonella enteritidis. Briefly: Antimicrobial activity against Salmonella enteritidis at 50 ug/disk after 48 hrs by paper disk method. Conditions: Salmonella enterica subsp. enterica serovar Enteritidis. Type of assay: functional, organism-based.

Molecules are shown by their SMILES. Active and inactive are the calls of the source. The calls are words filed in the database; no cut-off is given here.

For `O=C1N[C@@H](Cc2ccccc2)C(=O)N(O)[C@@H]1C[C@]1(O)c2ccccc2N2C(=O)C[C@@H](c3ccccc3)N[C@H]21`, the IC50 (in assay [1]; with HeLa; in the assay with K562; in the assay on HL-60) was more than 85 µM in each case. In addition, the result in the assay on Escherichia coli, in the assay on Bacillus cereus, in the assay with Staphylococcus aureus and with Salmonella enteritidis was inactive.

In general, IC50 refers to the point on the concentration scale where inhibition reaches its midpoint. Read a high IC50 as lower potency.

(Values after ChEMBL document CHEMBL3632583, “Haenamindole, an unusual diketopiperazine derivative from a marine-derived Penicillium sp. KCB12F005” (Bioorg Med Chem Lett, 2015).)
